Assays:
Type in all cases: cell-based
[1] = Cell cytotoxicity 50 assay (CC50), MB200 cells, cell titer glo; conditions: human
Protocol: Cell Cytotoxicity 50 Assay Protocol (CC50) MB200 cells were grown until 80% confluent in F10 media supplemented with rhFGF basic (10 ng/ml), 15% fetal bovine serum, 1% penicillin streptomycin, 1% amphotericin B, and 1 μM dexamethasone. Adherent MB200 cells growing on 10 cm plate were then trypsinized with 1 ml of trypsin. Once the cells detached from the plate, F10 media (10 mL) was added, and the cells were strained through a 70 μm cell strainer. The cells were counted using a mixture of 10 μL cell suspension with 10 μL of trypan blue. Once the total number of cells were counted, a dilution of 200 k/mL was prepared, and the cells were seeded with 10 k cells/well in a 96-well plate in triplicate, making sure to avoid seeding cells in the edges of the plate to avoid edge effects. Using a multichannel pipet, the 200 k/mL cell dilution (50 μL/well) was added into wells B2-B11, C2-C11, and D2-D11 in triplicate. Into a deep well block (DWB), the media for the appropriate cell line (450 μL/well) was added into wells 1-10. Into DWB well 2, 10 mM of drug solution (13.5 μL) was added, followed by an additional volume of the medium (225 μL). The well was pipetted up/down four times. A portion (225 μL) was transferred to well 3, and this process was repeated up to well 10. Using a multichannel pipet, a smaller portion (50 μL/well) was removed from all wells in the DWB and then dispensed on top of the cells in each corresponding row. After adding the drug, the plate was incubated at 37° C. for 72 h. Using a multi-channel pipet, pre-warmed cell titer glo reagent (Promega) (100 μL) was added into every well. After 5 minutes, the total luminescence was measured with a luminometer. CC50 was determined with GraphPad prism template.

[2] = Cell cytotoxicity 50 assay (CC50), HEK cells; conditions: human
Protocol: Cell Cytotoxicity 50 Assay Protocol (CC50) Into a deep well block (DWB), the media for the appropriate cell line (450 μL/well) was added into wells 1-10. Into DWB well 2, 10 mM of drug solution (13.5 μL) was added, followed by an additional volume of the medium (225 μL). The well was pipetted up/down four times. A portion (225 μL) was transferred to well 3, and this process was repeated up to well 10. Using a multichannel pipet, a smaller portion (50 μL/well) was removed from all wells in the DWB and then dispensed on top of the cells in each corresponding row. After adding the drug, the plate was incubated at 37° C. for 72 h. Using a multi-channel pipet, pre-warmed cell titer glo reagent (Promega) (100 μL) was added into every well. After 5 minutes, the total luminescence was measured with a luminometer. CC50 was determined with GraphPad prism template.

[3] = test system: MBD3L2 RNA; assay: RNA isolation and qPCR to determine MBD3L2 RNA levels in FSHD cells; conditions: 48 hrs
Protocol: Protocol for RNA Isolation and qPCR to Determine MBD3L2 RNA Levels The protocol describes the process of isolating RNA from cultured cells, converting the RNA to complementary DNA (cDNA), and measuring target gene expression using a quantitative polymerase chain reaction (qPCR). The seed FSHD cells were dispensed into a six-well dish. One day after seeding, the DUX4 inhibitor (11 μM or 3.6 μM/well) was added to the cells. After another 48 hrs, the old media was removed from the cells. The cells were washed with 2 mL of warm phosphate buffered saline (PBS). The PBS was aspirated, and the cells were lysed in each well with 350 μL of RLT buffer+3.5 μL of beta-mercaptoethanol (BME). The lysates were added to fresh, RNAse-free, labeled Eppendorf tubes. The cells were then physically disrupted for […] at level 4 of the bead disrupter to ensure the release of the RNA. The RNA was collected according to standard procedures (i.e., Qiagen kit instructions) as discussed below. The RNA concentrations were standardized to […]. In a PCR tube, RNA (2 μg) in a new Eppendorf tube was diluted with RNase-free water to a 9.5 μL final volume of […] RNA. DNase was used to remove any DNA contamination. A DNase Master Mix was prepared from 1.5 μL/reaction DNase solution (1 unit/μL, Promega), 3 μL/reaction 5× RT buffer (i.e., 250 mM Tris-HCl (pH 8.3), 375 mM KCl, 15 mM MgCl2, and 500 μl 0.1 M DTT; Promega MMLV), and 1 μL/reaction RNase inhibitor solution (RNasin, 40 units/μL, Promega). The DNase Master Mix was added to the standardized RNA samples (5.5 μL/sample). The samples were mixed by agitation and briefly spun down by centrifuge. The samples were heated to 37° C. for 60 min, 80° C. for 5 min, and then cooled to 4° C. The samples were stored on ice until the addition of the next reagents. An RT Reaction Master Mix was prepared from 5 μL/reaction 5× RT buffer, 2 μL/reaction dNTP solution (2.5 mM in each nucleotide), 1 μL/reaction RNase inhibitor solution (RNasin, 40 units/μL, Promega), 1.6 μL/reaction M-MLV reverse transcriptase (200 units/μL, Promega), and 13.4 μL/reaction deionized, RNase-free water. The RT Reaction Master Mix was cooled on ice until use. A 50 μM solution of Random Primer 6 random hexanucleotides (2 μL) was added to each sample. The samples were mixed by agitation and briefly spun down by centrifuge. The samples were heated to 70° C. for 5 min and then cooled to 4° C. The RT Reaction Master Mix (23 μL) was added to each sample. The samples were mixed by agitation and briefly spun down by centrifuge. To convert the RNA to cDNA, the samples were heated to 42° C. for 60 min, 95° C. for 5 min, and then cooled to 4° C. The cDNA product mixture was diluted 5:1 with deionized water (40 μL+160 μL). The samples were run in triplicate, with a methyl-CpG-binding protein 3-like 2 (MBD3L2) target primer and a eukaryotic translation elongation factor 1-alpha (EEF1A) control primer. An qPCR Master Mix was prepared for each primer and stored on ice (4° C.) until use. The qPCR Master Mix included 10 μL/reaction SYBR Green Mix (2×) (ThermoFisher), 1 μL/reaction of the primer mix (i.e., the MBD3L2 PCR Primer mix or the EEF1A Primer mix), and 4 μL/reaction deionized, RNase-free water. To set up the qPCR plate, 15 μL of the appropriate qPCR Master Mix was added to the appropriate wells for each target/primer. After all the targets/primers have been added to the wells, 5 μL of the sample was added to the corresponding wells so that each well is 20 μL total. The plate was covered with a clear sheet. An qPCR run was set up (QuantStudio 5) with the following cycle: […]

## O=C(CCc1cccnc1)Nc1ccc(-c2nc3ccccc3s2)nc1 [Compound 83]
[1]
  CC50 at 72 h: > 10 µM
[2]
  CC50 at 72 h: > 10 µM
[3]
  qPCR MBD3L2 Inhib at 11 µM: YES

## O=C(CCc1cn[nH]c1)Nc1ccc(-c2nc3ccccc3s2)cc1 [Compound 27]
[1]
  CC50 at 72 h: > 10 µM
[2]
  CC50 at 72 h: > 10 µM
[3]
  qPCR MBD3L2 Inhib at 11 µM: YES

## CC(=O)NCCC(=O)Nc1ccc(-c2nc3cc(F)ccc3s2)cc1 [Compound 44]
[1]
  CC50 at 72 h: > 10 µM
[2]
  CC50 at 72 h: > 10 µM
[3]
  qPCR MBD3L2 Inhib at 11 µM: YES

## O=C(CCCCN1C(=O)CCC1=O)Nc1ccc(-c2nc3ccccc3s2)o1 [Compound 167]
[1]
  CC50 at 72 h: > 10 µM
[2]
  CC50 at 72 h: > 10 µM
[3]
  qPCR MBD3L2 Inhib at 11 µM: YES

## O=C(CCc1cnc[nH]1)Nc1ccc(-c2nc3ccccc3s2)cc1 [Compound 14]
[1]
  CC50 at 72 h: > 10 µM
[2]
  CC50 at 72 h: > 10 µM
[3]
  qPCR MBD3L2 Inhib at 11 µM: YES

## O=C(CCCN1CCCC1=O)Nc1ccc(-c2nc3cc(F)ccc3s2)cc1 [Compound 116]
[1]
  CC50 at 72 h: > 10 µM
[2]
  CC50 at 72 h: > 10 µM
[3]
  qPCR MBD3L2 Inhib at 11 µM: YES

## CC(=O)NCCCC(=O)Nc1ccc(-c2nc(-c3ccccc3)cs2)cc1 [Compound 130]
[1]
  CC50 at 72 h: > 10 µM
[2]
  CC50 at 72 h: > 10 µM
[3]
  qPCR MBD3L2 Inhib at 11 µM: YES

## O=C(CCN1C(=O)CCC1=O)Nc1ccc(-c2nc3ccccc3s2)cc1 [Compound 1]
[1]
  CC50 at 72 h: 1 to 10 µM
[2]
  CC50 at 72 h: > 10 µM
[3]
  qPCR MBD3L2 Inhib at 11 µM: YES

## CC(=O)N[C@H]1CC[C@H](C(=O)Nc2nc3ccccc3s2)C1 [Compound 184]
[1]
  CC50 at 72 h: > 10 µM
[2]
  CC50 at 72 h: > 10 µM
[3]
  qPCR MBD3L2 Inhib at 11 µM: YES

## CC(=O)NC(C)CCC(=O)Nc1ccc(-c2nc3ccccc3s2)cc1 (stereo not drawn) [Compound 56]
[1]
  CC50 at 72 h: > 10 µM
[2]
  CC50 at 72 h: > 10 µM
[3]
  qPCR MBD3L2 Inhib at 11 µM: YES

## O=C(CC1CCCC1)Nc1ccc(-c2nc3ccccc3s2)cc1 [Compound 21]
[1]
  CC50 at 72 h: > 10 µM
[2]
  CC50 at 72 h: > 10 µM
[3]
  qPCR MBD3L2 Inhib at 11 µM: YES

## O=C(CCc1cncnc1)Nc1ccc(-c2nc3ccccc3s2)cc1 [Compound 55]
[1]
  CC50 at 72 h: > 10 µM
[2]
  CC50 at 72 h: > 10 µM
[3]
  qPCR MBD3L2 Inhib at 11 µM: YES

## CC(=O)NCCC(=O)Nc1ccc(-c2nc3cc(C#N)ccc3s2)cc1 [Compound 103]
[1]
  CC50 at 72 h: > 10 µM
[2]
  CC50 at 72 h: > 10 µM
[3]
  qPCR MBD3L2 Inhib at 11 µM: YES

## O=C(CCCc1cccnc1)Nc1ccc(-c2nc3ccccc3s2)cc1 [Compound 52]
[1]
  CC50 at 72 h: > 10 µM
[2]
  CC50 at 72 h: > 10 µM
[3]
  qPCR MBD3L2 Inhib at 11 µM: YES

## O=C(CCc1cnco1)Nc1ccc(-c2nc3cc(F)ccc3s2)cc1 [Compound 65]
[1]
  CC50 at 72 h: > 10 µM
[2]
  CC50 at 72 h: > 10 µM
[3]
  qPCR MBD3L2 Inhib at 11 µM: YES

From patent publication US20250313555A1, “2-SUBSTITUTED THIAZOLE AND BENZOTHIAZOLE COMPOSITIONS AND METHODS AS DUX4 INHIBITORS” (ALTAY THERAPEUTICS, INC., priority 2022, published 2025)
